Read-outs that look alike come from different tables or passages of the source.
Assays:
[1] = target: KRAS G12S (Homo sapiens (Human), UniProt P01116+P62937, G12S); experiment: Ras-Raf (BRAF RBD) disruption / FRET / MOA assay, KRAS G12S; assay type: biochemical; details: Ras-Raf disruption/FRET/MOA assay; class symbols; read-out: KRAS G12S FRET data IC50
In short: (§1)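 Compound-driven ternary complex of nucleotide-loaded Ras with cyclophilin A, disrupting BRAF RBD binding. 10-point 3-fold dilution from 30 μM final, 3 h at 25° C, then anti-His Eu-W1024 (10 nM) and anti-GST allophycocyanin (50 nM) for 1.5 h. IC50 from TR-FRET ratio decrease versus DMSO.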

[2] = target: KRAS WT (Homo sapiens (Human), UniProt P01116+P62937); experiment: Ras-Raf (BRAF RBD) disruption / FRET / MOA assay, KRAS WT; assay type: biochemical; details: read-out: IC50* KRAS WT FRET data
In short: as §1

[3] = target: KRAS G12D (Homo sapiens (Human), UniProt P01116+P62937, G12D); experiment: Ras-Raf (BRAF RBD) disruption / FRET / MOA assay, KRAS G12D; assay type: biochemical; details: Ras-Raf disruption/FRET/MOA assay; class symbols; read-out: KRAS G12D FRET data IC50
In short: as §1

[4] = target: KRAS G12V (Homo sapiens (Human), UniProt P01116+P62937, G12V); experiment: Ras-Raf (BRAF RBD) disruption / FRET / MOA assay, KRAS G12V; assay type: biochemical; details: read-out: IC50* KRAS G12V FRET data
In short: as §1

[5] = target: KRAS G13D (Homo sapiens (Human), UniProt P01116+P62937, G13D); experiment: Ras-Raf (BRAF RBD) disruption / FRET / MOA assay, KRAS G13D; assay type: biochemical; details: read-out: IC50* KRAS G13D FRET data
In short: as §1

[6] = target: K-Ras G13C (Homo sapiens (Human), UniProt P01116+P62937, G13C); experiment: Ras-Raf (BRAF RBD) disruption / FRET / MOA assay, KRAS G13C; assay type: biochemical; details: KRAS G13C; Ras-Raf disruption/FRET/MOA assay; read-out: IC50* KRAS G13C FRET data
In short: as §1

[7] = target: K-Ras G12C (Homo sapiens (Human), UniProt P01116+P62937, G12C); experiment: Ras-Raf (BRAF RBD) disruption / FRET / MOA assay, KRAS G12C; assay type: biochemical; details: KRAS G12C; Ras-Raf disruption/FRET/MOA assay; read-out: IC50* KRAS G12C FRET data
In short: as §1

[8] = target: NRAS G12C (Homo sapiens (Human), UniProt P01111+P62937, G12C); experiment: Ras-Raf (BRAF RBD) disruption / FRET / MOA assay, NRAS G12C; assay type: biochemical; details: read-out: IC50* NRAS G12C FRET data
In short: as §1

[9] = test system: NCI-H358 (K-Ras G12C); experiment: CellTiter-Glo cell viability assay, NCI-H358; assay type: cell-based, human; details: NCI-H358, 5-day treatment, class symbols, read-out: Additional H358 Cell Viability assay data (K-Ras G12C, IC50)
In short: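 Viability of K-Ras mutant lines is measured by ATP luminescence after five days of compound treatment. Percent of DMSO control is calculated and dose-response data are fitted with a four-parameter logistic equation.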

KRAS G12V, sequence (P01116-2 other isoform, or with tags, fused parts or gaps G12V): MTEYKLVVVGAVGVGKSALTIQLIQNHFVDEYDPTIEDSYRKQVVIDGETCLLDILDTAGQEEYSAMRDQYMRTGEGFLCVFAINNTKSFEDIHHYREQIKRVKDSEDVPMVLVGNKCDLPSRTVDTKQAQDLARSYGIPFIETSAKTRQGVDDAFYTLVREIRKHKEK
KRAS G12V, sequence (P62937 whole entry): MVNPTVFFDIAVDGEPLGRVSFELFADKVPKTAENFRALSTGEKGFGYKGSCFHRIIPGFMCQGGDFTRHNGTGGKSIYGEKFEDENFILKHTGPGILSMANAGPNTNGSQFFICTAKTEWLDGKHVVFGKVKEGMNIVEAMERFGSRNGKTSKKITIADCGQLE
K-Ras G13C, sequence (P01116-2 other isoform, or with tags, fused parts or gaps G13C): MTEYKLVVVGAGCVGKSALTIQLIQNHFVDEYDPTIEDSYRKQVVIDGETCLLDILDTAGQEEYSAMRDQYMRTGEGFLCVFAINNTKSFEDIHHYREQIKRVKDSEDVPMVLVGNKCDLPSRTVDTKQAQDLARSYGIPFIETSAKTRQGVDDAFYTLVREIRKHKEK
K-Ras G13C, sequence (P62937 whole entry): as the sequence (P62937 whole entry) above
NRAS G12C, sequence (P01111 whole entry G12C): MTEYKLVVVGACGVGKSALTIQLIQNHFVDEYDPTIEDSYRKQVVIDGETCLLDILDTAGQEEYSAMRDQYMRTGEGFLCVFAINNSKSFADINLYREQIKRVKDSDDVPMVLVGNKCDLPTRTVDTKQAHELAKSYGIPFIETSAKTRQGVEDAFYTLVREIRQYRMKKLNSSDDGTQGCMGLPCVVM
NRAS G12C, sequence (P62937 whole entry): as the sequence (P62937 whole entry) above
KRAS G12S, sequence (P01116-2 other isoform, or with tags, fused parts or gaps G12S): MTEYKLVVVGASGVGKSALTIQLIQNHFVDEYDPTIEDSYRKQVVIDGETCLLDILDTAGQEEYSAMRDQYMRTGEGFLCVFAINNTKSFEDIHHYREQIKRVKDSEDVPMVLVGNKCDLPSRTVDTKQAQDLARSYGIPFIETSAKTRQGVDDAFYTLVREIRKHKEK
KRAS G12S, sequence (P62937 whole entry): as the sequence (P62937 whole entry) above
K-Ras G12C, sequence (P01116-2 other isoform, or with tags, fused parts or gaps G12C): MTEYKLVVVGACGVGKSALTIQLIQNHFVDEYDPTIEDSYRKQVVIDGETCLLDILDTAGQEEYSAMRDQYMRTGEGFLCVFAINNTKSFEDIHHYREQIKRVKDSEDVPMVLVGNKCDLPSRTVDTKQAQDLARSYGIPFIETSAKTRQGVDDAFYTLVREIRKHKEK
K-Ras G12C, sequence (P62937 whole entry): as the sequence (P62937 whole entry) above
KRAS WT, sequence (P01116-2 other isoform, or with tags, fused parts or gaps): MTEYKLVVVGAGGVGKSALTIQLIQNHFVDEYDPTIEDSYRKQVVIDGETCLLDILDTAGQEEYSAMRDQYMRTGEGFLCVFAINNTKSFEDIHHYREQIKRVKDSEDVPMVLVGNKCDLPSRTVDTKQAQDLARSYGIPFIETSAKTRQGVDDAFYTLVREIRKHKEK
KRAS WT, sequence (P62937 whole entry): as the sequence (P62937 whole entry) above
KRAS G12D, sequence (P01116-2 other isoform, or with tags, fused parts or gaps G12D): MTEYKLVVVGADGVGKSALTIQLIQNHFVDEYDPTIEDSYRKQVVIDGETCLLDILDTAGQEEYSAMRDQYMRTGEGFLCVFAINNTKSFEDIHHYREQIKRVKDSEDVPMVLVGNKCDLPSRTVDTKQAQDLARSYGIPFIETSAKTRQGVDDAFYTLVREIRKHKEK
KRAS G12D, sequence (P62937 whole entry): as the sequence (P62937 whole entry) above
KRAS G13D, sequence (P01116-2 other isoform, or with tags, fused parts or gaps G13D): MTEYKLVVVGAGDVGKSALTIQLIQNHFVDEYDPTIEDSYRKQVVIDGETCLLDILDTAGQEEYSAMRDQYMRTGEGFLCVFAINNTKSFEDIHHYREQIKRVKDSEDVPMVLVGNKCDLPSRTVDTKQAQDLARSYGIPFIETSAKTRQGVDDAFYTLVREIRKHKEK
KRAS G13D, sequence (P62937 whole entry): as the sequence (P62937 whole entry) above

SMILES | IC50 [1] | IC50 [2] | IC50 [3] | IC50 [4] | IC50 [5] | IC50 [6] | IC50 [7] | IC50 [8] | IC50 ([9]; Homo sapiens, NCI-H358, 120 h) | IC50 [9]
C=CC(=O)N1CC(OCC(C(=O)N[C@H]2Cc3cc(cc(C(F)F)c3)-c3ccc4c(c3)c(c(-c3cccnc3[C@H](C)OC)n4CC)CC(C)(C)COC(=O)[C@@H]3CCCN(N3)C2=O)C(C)C)C1 (mixture of isomers) [Example A450] | > 10 µM | > 10 µM | > 10 µM | > 10 µM | > 10 µM | > 10 µM | > 10 µM | > 10 µM | > 1 µM | 
C=CC(=O)N1CC(OCC(C(=O)N[C@H]2Cc3cccc(c3)-c3ccc4c(c3)c(c(-c3cccnc3[C@H](C)OC)n4CC)CC(C)(C)COC(=O)[C@@H]3CCCN(N3)C2=O)C(C)C)C1 (mixture of isomers) [Example A484] | > 10 µM | > 10 µM | > 10 µM | > 10 µM | > 10 µM | 1 to 10 µM | 0.1 to 1 µM | 1 to 10 µM | 0.1 to 1 µM | 
C=CC(=O)N1CCC(C(=O)N(C)[C@H](C(=O)N[C@H]2Cc3cc(O)cc(c3)-c3ccc4c(c3)c(c(-c3ccccc3CCOC)n4CC)CC(C)(C)c3coc(n3)[C@@H]3CCCN(N3)C2=O)C(C)C)C1 (single isomer, unassigned) [Example A231] | > 10 µM | > 10 µM | > 10 µM | > 10 µM | > 10 µM | > 10 µM | > 10 µM | > 10 µM | > 1 µM | 
C=CC(=O)N1CC[C@H](C(=O)N(C)[C@H](C(=O)N[C@H]2Cc3cccc(c3)-c3ccc4c(c3)c(c(-c3cnccc3[C@H](C)OC)n4CC)CC(C)(C)COC(=O)[C@@H]3CCCN(N3)C2=O)C(C)C)C1 [Example A122] | > 10 µM | > 10 µM | > 10 µM | > 10 µM | > 10 µM | > 10 µM | > 10 µM | > 10 µM | > 1 µM | 
C=CC(=O)N1CC[C@H](C(=O)N(C)[C@H](C(=O)N[C@H]2Cc3cc(O)cc(c3)-c3ccc4c(c3)c(c(-c3cccnc3CNC)n4CC)CC(C)(C)COC(=O)[C@@H]3CCCN(N3)C2=O)C(C)C)C1 [Example A137] | 1 to 10 µM | 1 to 10 µM | > 10 µM | 1 to 10 µM | > 10 µM | > 10 µM | 0.1 to 1 µM | 0.1 to 1 µM | > 1 µM | 
CCn1c(-c2cccnc2COC)c2c3cc(ccc31)-c1cc(O)cc(c1)C[C@H](NC(=O)[C@H](C(C)C)N(C)C(=O)[C@H]1CCC(C(=O)/C=C\CN(C)C)C1)C(=O)N1CCC[C@H](N1)C(=O)OCC(C)(C)C2 (stereo partly drawn) [Example A161] | 1 to 10 µM | 1 to 10 µM | > 10 µM | 1 to 10 µM | 1 to 10 µM | 1 to 10 µM | 0.1 to 1 µM | 0.1 to 1 µM |  | > 1 µM
COCc1ncccc1-c1nc2ccc3cc2n1CC(C)(C)COC(=O)[C@@H]1CCCN(N1)C(=O)[C@@H](NC(=O)[C@H](C(C)C)N(C)C(=O)[C@H]1CCN(C(=O)C#CCN2CCOCC2)C1)Cc1cc(O)cc-3c1 [Example A188] | > 10 µM | > 10 µM | > 10 µM | > 10 µM | > 10 µM | > 10 µM | 0.1 to 1 µM | 0.1 to 1 µM | > 1 µM | 
C=CC(=O)N1CC[C@H](C(=O)Nc2ccccc2C(=O)N[C@H]2Cc3cc(O)cc(c3)-c3ccc4c(c3)c(c(-c3cnccc3COC)n4CC)CC(C)(C)COC(=O)[C@@H]3CCCN(N3)C2=O)C1 [Example A229] | > 10 µM | > 10 µM | > 10 µM | > 10 µM | > 10 µM | > 10 µM | 0.1 to 1 µM | 1 to 10 µM | > 1 µM | 
C=CC(=O)N1CC[C@H](C(=O)N(C)[C@H](C(=O)N(C)[C@H]2Cc3cc(O)cc(c3)-c3ccc4c(c3)c(c(-c3cccnc3COC)n4CC)CC(C)(C)COC(=O)[C@@H]3CCCN(N3)C2=O)C(C)C)C1 [Example A230] | > 10 µM | > 10 µM | > 10 µM | > 10 µM | > 10 µM | > 10 µM | > 10 µM | > 10 µM | > 1 µM | 
C=CC(=O)N1CC[C@H](C(=O)N(C)[C@H](C(=O)N[C@H]2Cc3cc(OC4O[C@H](CO)[C@@H](O)[C@H](O)[C@H]4O)cc(c3)-c3ccc4c(c3)c(c(-c3cccnc3COC)n4CC)CC(C)(C)COC(=O)[C@@H]3CCCN(N3)C2=O)C(C)C)C1 (stereo partly drawn) [Example A234] | > 10 µM | > 10 µM | > 10 µM | > 10 µM | > 10 µM | > 10 µM | > 10 µM | > 10 µM | > 1 µM | 
C=CC(=O)N1CC(O[C@H](C(=O)N[C@H]2Cc3cc(O)cc(c3)-c3ccc4c(c3)c(c(-c3cccnc3COC)n4CC)CC(C)(C)COC(=O)[C@@H]3CCCN(N3)C2=O)C(C)C)C1 [Example A235] | > 10 µM | > 10 µM | > 10 µM | > 10 µM | > 10 µM | 1 to 10 µM | 1 to 10 µM | 1 to 10 µM | > 1 µM | 
C=CC(=O)N1CC[C@H](C(=O)N(C)[C@H](C(=O)N[C@H]2CC3=NN=C(S3)c3ccc4c(c3)c(c(-c3cccnc3COC)n4CC)CC(C)(C)COC(=O)[C@@H]3CCCN(N3)C2=O)C(C)C)C1 [Example A236] | > 10 µM | > 10 µM | > 10 µM | > 10 µM | > 10 µM | > 10 µM | > 10 µM | > 10 µM | > 1 µM | 
C=CC(=O)N1CC[C@H](C(=O)N(C)[C@H](C(=O)N[C@H]2CN(C)C(=O)Cc3ccc4c(c3)c(c(-c3cccnc3COC)n4CC)CC(C)(C)COC(=O)[C@@H]3CCCN(N3)C2=O)C(C)C)C1 [Example A239] | > 10 µM | > 10 µM | > 10 µM | > 10 µM | > 10 µM | > 10 µM | > 10 µM | > 10 µM | > 1 µM | 
C=CC(=O)N1CC[C@H](C(=O)N(C)[C@H](C(=O)N[C@@H]2C(=O)N3CCC[C@H](N3)C(=O)OCC(C)(C)Cc3c(-c4cncnc4)n(CC)c4ccc(cc34)-c3cccc(c3)[C@@H]2OC)C(C)C)C1 [Example A271] | > 10 µM | > 10 µM | > 10 µM | > 10 µM | > 10 µM | > 10 µM | > 10 µM | > 10 µM | > 1 µM | 
C=CC(=O)N1CC[C@H](C(=O)N(C)[C@H](C(=O)N[C@@H]2C(=O)N3CCC[C@H](N3)C(=O)OCC(C)(C)Cc3c(-c4cncnc4)n(CC)c4ccc(cc34)-c3cccc(c3)[C@H]2OC)C(C)C)C1 [Example A273] | > 10 µM | > 10 µM | > 10 µM | > 10 µM | > 10 µM | > 10 µM | > 10 µM | > 10 µM | > 1 µM | 
CC#CC(=O)N1CC[C@H](C(=O)N(C)[C@H](C(=O)N[C@H]2Cc3nc(cs3)-c3ccc4c(c3)c(c(-c3cccnc3[C@H](C)OC)n4C(C)=O)CC(C)(C)COC(=O)[C@@H]3CCCN(N3)C2=O)C(C)C)C1 [Example A293] | > 10 µM | > 10 µM | > 10 µM | > 10 µM | > 10 µM | > 10 µM | > 10 µM | > 10 µM | > 1 µM | 
CO[C@@H](C)c1ncccc1-c1nc2ccc3cn2c1CC(C)(C)COC(=O)[C@@H]1CCCN(N1)C(=O)[C@@H](NC(=O)[C@H](C(C)C)N(C)C(=O)[C@H]1CCN(C(=O)C#CC(C)(C)N(C)C)C1)Cc1cccc-3c1 [Example A311] | > 10 µM | > 10 µM | > 10 µM | > 10 µM | > 10 µM | > 10 µM | > 10 µM | > 10 µM | > 1 µM | 
C=CC(=O)N1CC[C@H](C(=O)N(C)[C@H](C(=O)NC2C[C@@H]3CN(CCO3)c3ccc4c(c3)c(c(-c3cccnc3[C@H](C)OC)n4CC)CC(C)(C)COC(=O)[C@@H]3CCCN(N3)C2=O)C(C)C)C1 (stereo partly drawn) [Example A312] | > 10 µM | > 10 µM | > 10 µM | > 10 µM | > 10 µM | > 10 µM | > 10 µM | > 10 µM | > 1 µM | 

Source: patent US11566007B2, “Ras inhibitors” (Revolution Medicines, Inc., priority 2019, dated 2023)
